The NIST ThermoML archive (doi:10.1016/j.jct.2016.12.037)
± gives the expanded uncertainty stated by the source.

Assay: xn = mol fraction of the nth substance listed
Conditions: Liquid; for viscosity: Concentric cylinders viscometry

CCCC[n+]1ccn(C)c1.O=S(=O)([N-]S(=O)(=O)C(F)(F)F)C(F)(F)F + CCCCn1cc[n+](C)c1.[Cl-]
mass density [kg/m3]
Conditions	x2 = 0	x2 = 0.25	x2 = 0.5	x2 = 0.75
331.8 K, 10000 kPa, Bellows volumetry	–	–	–	1192.4 ± 4.3
331.8 K, 20000 kPa, Bellows volumetry	–	1363.2 ± 5.9	1291.3 ± 5.5	1197.3 ± 4.3
331.8 K, 30000 kPa, Bellows volumetry	–	1369.9 ± 6	1297.1 ± 5.5	1202.1 ± 4.4
331.8 K, 40000 kPa, Bellows volumetry	–	1376.2 ± 6	1302.7 ± 5.5	1206.7 ± 4.4
331.8 K, 50000 kPa, Bellows volumetry	–	1382.2 ± 6	1307.9 ± 5.5	1211.1 ± 4.4
331.8 K, 60000 kPa, Bellows volumetry	–	1388 ± 6	1313 ± 5.5	1215.5 ± 4.4
331.8 K, 70000 kPa, Bellows volumetry	–	1393.5 ± 6	1318 ± 5.5	1219.5 ± 4.4
331.8 K, 80000 kPa, Bellows volumetry	–	1398.9 ± 6	1322.8 ± 5.5	1223.6 ± 4.4
331.8 K, 90000 kPa, Bellows volumetry	–	1404 ± 6	1327.2 ± 5.5	1227.4 ± 4.4
331.8 K, 100000 kPa, Bellows volumetry	–	1408.9 ± 6	1331.6 ± 5.6	1231.2 ± 4.4
331.8 K, 110000 kPa, Bellows volumetry	–	1413.9 ± 6	1336.1 ± 5.6	1235 ± 4.4
331.8 K, 120000 kPa, Bellows volumetry	–	1418.5 ± 6	1340.4 ± 5.6	1238.5 ± 4.4
331.8 K, 130000 kPa, Bellows volumetry	–	1423.2 ± 6	1344.4 ± 5.6	1242 ± 4.4
331.8 K, 140000 kPa, Bellows volumetry	–	1427.6 ± 6	1348.5 ± 5.6	1245.4 ± 4.4
331.8 K, 150000 kPa, Bellows volumetry	–	1432 ± 6	1352.3 ± 5.6	1248.7 ± 4.4
331.8 K, 160000 kPa, Bellows volumetry	–	1436.3 ± 6	1356.2 ± 5.6	1252.1 ± 4.4
331.8 K, 170000 kPa, Bellows volumetry	–	1440.5 ± 6	1359.9 ± 5.6	1255.3 ± 4.4
331.8 K, 180000 kPa, Bellows volumetry	–	1444.5 ± 6	1363.8 ± 5.6	1258.5 ± 4.4
331.8 K, 190000 kPa, Bellows volumetry	–	1448.5 ± 6	1367.3 ± 5.6	1261.6 ± 4.4
331.8 K, 200000 kPa, Bellows volumetry	–	1452.6 ± 6	1371 ± 5.6	1264.7 ± 4.4
333.15 K, 100 kPa, Vibrating tube method	1403.4 ± 3.5	1348.2 ± 5.3	1278.3 ± 4.9	1186.8 ± 4
343.15 K, 100 kPa, Vibrating tube method	1394 ± 3.5	1339.6 ± 5.3	1270.6 ± 4.9	1180.2 ± 4
351.9 K, 10000 kPa, Bellows volumetry	–	1339.5 ± 5.9	1270.2 ± 5.5	1179 ± 4.3
351.9 K, 20000 kPa, Bellows volumetry	–	1346.9 ± 5.9	1276.5 ± 5.5	1184.3 ± 4.3
351.9 K, 30000 kPa, Bellows volumetry	–	1354 ± 5.9	1282.7 ± 5.5	1189.3 ± 4.3
351.9 K, 40000 kPa, Bellows volumetry	–	1360.6 ± 5.9	1288.5 ± 5.5	1194.1 ± 4.3
351.9 K, 50000 kPa, Bellows volumetry	–	1366.9 ± 5.9	1294.1 ± 5.5	1198.8 ± 4.3
351.9 K, 60000 kPa, Bellows volumetry	–	1373 ± 6	1299.5 ± 5.5	1203.2 ± 4.4
351.9 K, 70000 kPa, Bellows volumetry	–	1378.9 ± 6	–	–

viscosity [mPa·s], 100 kPa
Conditions	x2 = 0	x2 = 0.25	x2 = 0.5	x2 = 0.75
333.15 K	15.47 ± 0.73	27.37 ± 1.8	57.22 ± 4.6	150.4 ± 10
343.15 K	12 ± 0.57	20.16 ± 1.3	39.08 ± 2.8	91.4 ± 5.7
